Results as given in patent US11197908B2, “Peptoids and methods for attenuating inflammatory response” (THE BOARD OF TRUSTEES OF THE UNIVERSITY OF ARKANSAS, priority 2018, dated 2021).
Where a SMILES comes first, the peptide text is derived from it. [ ]: non-standard residue; d: D form. N(1S-Me-propyl)Gly = CC[C@H](C)NCC(=O)O; Nspe = C[C@H](NCC(=O)O)c1ccccc1; Nlys = NCCCCNCC(=O)O

What was measured:
IL-8 = IL-8 in supernatant of THP-1 macrophages co-incubated with peptoid and LPS (ELISA); assay type: cell-based, human; conditions: 3 days, vs LPS alone
Method: THP-1 monocytes were differentiated into macrophages through exposure to phorbol 12-myristate 13-acetate (PMA) for three days prior to experimentation 10. […] Upon differentiation, these cells were then incubated (3 days) with media containing JPT1a (50, 10, or 2 μM) alone or JPT1a (50, 10, or 2 μM) in the presence of low-dose (2 ng/mL) lipopolysaccharide (LPS) as a chronic pro-inflammatory stimulus 11. Treatment with 2 ng/mL LPS alone served as a positive control, while treatment with an equivalent volume of buffer diluted into media served as the vehicle. Cellular supernatant was harvested on day 3 12; these samples were immediately centrifuged at 1200 rpm for 10 min at 25° C. to remove any cells or debris. […] All multi-channel images were converted to TIFF file format via ImageJ64 software for quantitative image analysis using a custom subroutine written in Matlab™ software to obtain the average RAGE expression per volume of cells, and the data generated was assessed for statistical significance using GraphPad Prism 7.0 software 15.
As shown in FIGS. 2B-2D, THP-1 macrophages were treated with JPT1a alone (white) or in the presence of a chronic low-dose (2 ng/mL) of LPS (grey), for 3 days prior to supernatant harvest and storage. Examination of the supernatant via ELISA determined the concentrations of (FIG. 2B) IL-1β, (FIG. 2C) IL-6, and (FIG. 2D) IL-8. […]

RAGE [1] = target: RAGE (Homo sapiens, UniProt Q15109); test: RAGE binding to peptoid-coated 96-well plates, Scatchard plot; conditions: plates coated with 500 nM peptoid; JPT1a n=3 average, JPT1 n=1
Method: As shown in FIGS. 7A-7D, 96-well plates coated with 500 nM JPT1a were treated with concentrations of RAGE (FIG. 7A) or E-cadherin (FIG. 7B) ranging from 1 to 500 nM. Values are reported as the average concentration of bound protein determined from all experiments. Error bars indicate SEM, n=2-5. […] In FIG. 7D, 96-well plates coated with 500 nM JPT1 were treated with concentrations of RAGE ranging from 1 to 350 nM.

RAGE [2] = test: Aβ1-42 oligomer induced RAGE expression in THP1 macrophages (confocal imaging); assay type: cell-based, human; conditions: 3 days
Method: Aβ1-42 oligomers were prepared at 15 μM through the addition of 12 mM phosphate containing […] to DMSO-solubilized AP. After 15-minute incubation, oligomerization was halted and used to immediately prepare treatments of 10 nM Aβ1-42 oligomers alone (positive control) or in the presence of the peptoid at concentrations ranging from 1 μM to 25 μM. Treatments were applied to THP1 macrophages for 3 days prior to cell fixation and staining. Treatment with 10 nM Aβ1-42 oligomers alone served as a positive control, while treatment with an equivalent volume of buffer diluted into media served as the vehicle. Treatment with 15 μM JPT1a ensured that JPT1a alone had no effect. Cells were fixed and stained for RAGE, phalloidin (cytoplasmic marker), and DAPI (nuclear marker). […] All multi-channel images were converted to TIFF file format via ImageJ64 software for quantitative image analysis using a custom subroutine written in MATLAB™ software to obtain the average RAGE expression per volume of cells.
Treatment with an equivalent volume of buffer diluted into media served as the vehicle. Treatment with 25 μM JPT1a in the presence of vehicle assessed the effect of the peptoid alone (black). Images were analyzed via custom MATLAB™ subroutine to determine the average quantity of RAGE present within a given volume of cells. […]

RAGE (Homo sapiens, UniProt Q15109), sequence (Q15109 23-404): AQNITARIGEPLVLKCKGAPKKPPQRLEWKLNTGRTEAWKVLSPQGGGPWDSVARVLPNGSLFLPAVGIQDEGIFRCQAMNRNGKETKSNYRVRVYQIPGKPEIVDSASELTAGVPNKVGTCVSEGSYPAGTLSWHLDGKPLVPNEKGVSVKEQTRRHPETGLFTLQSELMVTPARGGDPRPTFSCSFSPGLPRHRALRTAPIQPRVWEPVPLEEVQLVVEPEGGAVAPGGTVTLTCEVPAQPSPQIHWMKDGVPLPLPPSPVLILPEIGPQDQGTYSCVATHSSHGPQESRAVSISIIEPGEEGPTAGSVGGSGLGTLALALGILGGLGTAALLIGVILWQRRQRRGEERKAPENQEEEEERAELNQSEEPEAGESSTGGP

CC[C@H](C)N(CC(=O)N(CC(=O)N(CC(=O)N(CC(=O)N(CC(=O)N(CC(=O)N(CC(N)=O)[C@@H](C)c1ccccc1)[C@@H](C)c1ccccc1)[C@@H](C)CC)[C@@H](C)c1ccccc1)[C@@H](C)c1ccccc1)[C@@H](C)CC)C(=O)CNCCCCN [JPT1a] (H-[Nlys][N(1S-Me-propyl)Gly][N(1S-Me-propyl)Gly][Nspe][Nspe][N(1S-Me-propyl)Gly][Nspe][Nspe]-NH2)
levels of LPS-induced IL-8 (IL-8; peptoid 10 μM with 2 ng/mL LPS): significantly reduces | LPS-induced production of IL-8 (IL-8; peptoid 50 μM with 2 ng/mL LPS): significantly attenuates | Kd (RAGE [1]): 51.8 ± 7.3 nM | expression of RAGE, JPT1a alone (RAGE [2]; 25 μM JPT1a in the presence of vehicle): does not provoke significant response or upregulation | Aβ1-42 oligomer induced RAGE expression (RAGE [2]; JPT1a 25, 10, 5 or 1 μM with 10 nM Aβ1-42 oligomers, fraction of positive control): dose-dependent reduction
